Source: PMC5355060, “Preclinical pharmacodynamic evaluation of drug candidate SKLB-178 in the treatment of non-small cell lung cancer” (Oncotarget, 2017)

Legend:
Type in all cases: biochemical
KDR (VEGFR2) = KDR (VEGFR2) (Homo sapiens, UniProt P35968); assay: […] radiolabeled kinase assay (Millipore KinaseProfiler)
EGFR = EGFR (Homo sapiens, UniProt P00533); assay: as above
ErbB4 = ErbB4 (Homo sapiens, UniProt Q15303); assay: […] radiolabeled kinase assay, single dose […]
EGFR L858R = EGFR L858R (Homo sapiens, UniProt P00533, L858R); assay: […] radiolabeled kinase assay (Millipore KinaseProfiler)
Src = Src (Homo sapiens, UniProt P12931); assay: as above
PDGFRα = target: T1, PDGFRα (Homo sapiens, UniProt P16234); assay: […] radiolabeled kinase assay, single dose […]
T1 construct: gene PDGFRA

MET = MET (Homo sapiens, UniProt P08581); assay: […] radiolabeled kinase assay, single dose […]
EGFR L858R/T790M = EGFR L858R/T790M (Homo sapiens, UniProt P00533, T790M/L858R); assay: […] radiolabeled kinase assay (Millipore KinaseProfiler)
Chain of EGFR L858R/T790M (P00533 669-1210 T790M/L858R limits assumed): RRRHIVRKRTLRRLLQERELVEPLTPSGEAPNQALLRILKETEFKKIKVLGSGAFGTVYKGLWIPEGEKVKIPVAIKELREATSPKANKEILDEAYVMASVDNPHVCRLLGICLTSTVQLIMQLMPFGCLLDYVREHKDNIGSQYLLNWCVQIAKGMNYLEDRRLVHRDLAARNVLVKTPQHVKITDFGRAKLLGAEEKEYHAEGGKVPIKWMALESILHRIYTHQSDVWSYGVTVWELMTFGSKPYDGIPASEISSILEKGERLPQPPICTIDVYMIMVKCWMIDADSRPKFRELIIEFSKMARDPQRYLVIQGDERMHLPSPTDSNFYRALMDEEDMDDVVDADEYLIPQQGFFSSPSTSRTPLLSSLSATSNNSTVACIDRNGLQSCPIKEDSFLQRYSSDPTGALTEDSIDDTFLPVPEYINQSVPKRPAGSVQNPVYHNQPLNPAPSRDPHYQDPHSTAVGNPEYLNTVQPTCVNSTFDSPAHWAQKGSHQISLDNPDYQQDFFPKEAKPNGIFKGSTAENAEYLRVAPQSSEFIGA

Chain of ErbB4 (Q15303 26-1308): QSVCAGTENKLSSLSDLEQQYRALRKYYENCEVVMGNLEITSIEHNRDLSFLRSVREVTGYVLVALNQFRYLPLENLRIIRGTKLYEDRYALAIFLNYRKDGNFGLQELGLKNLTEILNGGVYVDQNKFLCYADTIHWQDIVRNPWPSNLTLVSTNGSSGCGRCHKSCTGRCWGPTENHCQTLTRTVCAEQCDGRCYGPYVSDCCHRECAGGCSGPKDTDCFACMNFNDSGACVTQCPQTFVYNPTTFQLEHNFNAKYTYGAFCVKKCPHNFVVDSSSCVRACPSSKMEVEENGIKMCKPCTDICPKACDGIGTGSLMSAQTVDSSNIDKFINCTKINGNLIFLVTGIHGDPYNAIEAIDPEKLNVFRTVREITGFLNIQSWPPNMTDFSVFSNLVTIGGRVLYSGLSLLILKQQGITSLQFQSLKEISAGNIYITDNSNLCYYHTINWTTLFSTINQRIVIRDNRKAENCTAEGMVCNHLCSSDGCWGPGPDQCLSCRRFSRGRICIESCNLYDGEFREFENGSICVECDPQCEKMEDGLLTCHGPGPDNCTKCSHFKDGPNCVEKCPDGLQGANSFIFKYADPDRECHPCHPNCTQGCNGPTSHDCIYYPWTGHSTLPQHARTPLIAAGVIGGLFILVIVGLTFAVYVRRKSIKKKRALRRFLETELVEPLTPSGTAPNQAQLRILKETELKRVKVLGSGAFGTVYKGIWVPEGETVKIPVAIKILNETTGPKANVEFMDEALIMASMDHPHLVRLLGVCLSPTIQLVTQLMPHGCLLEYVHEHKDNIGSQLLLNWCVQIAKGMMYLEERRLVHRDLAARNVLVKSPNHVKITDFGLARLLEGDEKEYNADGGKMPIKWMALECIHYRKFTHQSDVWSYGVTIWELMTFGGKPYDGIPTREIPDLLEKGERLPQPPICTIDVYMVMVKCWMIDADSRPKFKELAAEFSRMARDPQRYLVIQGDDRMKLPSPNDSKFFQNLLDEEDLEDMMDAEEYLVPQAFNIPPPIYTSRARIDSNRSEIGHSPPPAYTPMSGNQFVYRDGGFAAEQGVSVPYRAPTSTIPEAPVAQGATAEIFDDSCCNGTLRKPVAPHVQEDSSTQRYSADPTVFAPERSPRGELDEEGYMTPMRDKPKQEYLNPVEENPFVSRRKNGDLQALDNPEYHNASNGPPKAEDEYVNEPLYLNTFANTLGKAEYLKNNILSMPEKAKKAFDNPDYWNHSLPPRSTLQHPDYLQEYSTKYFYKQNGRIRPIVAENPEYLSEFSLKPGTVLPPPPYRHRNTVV
Chain of Src (P12931 2-536): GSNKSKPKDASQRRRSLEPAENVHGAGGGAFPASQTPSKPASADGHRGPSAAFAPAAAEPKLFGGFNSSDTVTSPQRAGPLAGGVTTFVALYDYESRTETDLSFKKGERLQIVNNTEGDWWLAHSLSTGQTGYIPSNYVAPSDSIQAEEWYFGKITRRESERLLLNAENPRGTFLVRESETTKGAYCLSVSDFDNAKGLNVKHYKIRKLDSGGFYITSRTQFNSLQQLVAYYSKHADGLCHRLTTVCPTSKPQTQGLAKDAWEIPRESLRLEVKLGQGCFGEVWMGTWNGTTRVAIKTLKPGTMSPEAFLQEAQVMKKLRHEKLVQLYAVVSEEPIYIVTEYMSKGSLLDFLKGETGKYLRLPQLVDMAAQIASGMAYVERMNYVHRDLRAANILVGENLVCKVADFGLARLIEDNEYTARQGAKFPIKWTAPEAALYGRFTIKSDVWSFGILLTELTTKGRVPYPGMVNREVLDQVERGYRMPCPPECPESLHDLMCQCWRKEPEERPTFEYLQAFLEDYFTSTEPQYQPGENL
Chain of EGFR L858R (P00533 668-1210 L858R limits assumed): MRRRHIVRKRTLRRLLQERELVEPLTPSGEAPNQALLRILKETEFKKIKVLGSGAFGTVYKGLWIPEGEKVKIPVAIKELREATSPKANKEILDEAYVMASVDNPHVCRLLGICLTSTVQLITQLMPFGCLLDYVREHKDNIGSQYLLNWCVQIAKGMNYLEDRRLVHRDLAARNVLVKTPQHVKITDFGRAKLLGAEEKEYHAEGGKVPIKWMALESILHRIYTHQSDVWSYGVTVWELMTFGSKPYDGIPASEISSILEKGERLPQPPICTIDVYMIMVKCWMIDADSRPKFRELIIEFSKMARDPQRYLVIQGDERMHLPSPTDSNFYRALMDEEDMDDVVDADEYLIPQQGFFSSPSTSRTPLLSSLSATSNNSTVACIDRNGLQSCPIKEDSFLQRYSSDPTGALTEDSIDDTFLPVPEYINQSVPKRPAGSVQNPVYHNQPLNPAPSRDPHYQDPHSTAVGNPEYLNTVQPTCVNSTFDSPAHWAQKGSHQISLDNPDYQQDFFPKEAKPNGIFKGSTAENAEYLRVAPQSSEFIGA
Chain of EGFR (P00533 25-1210): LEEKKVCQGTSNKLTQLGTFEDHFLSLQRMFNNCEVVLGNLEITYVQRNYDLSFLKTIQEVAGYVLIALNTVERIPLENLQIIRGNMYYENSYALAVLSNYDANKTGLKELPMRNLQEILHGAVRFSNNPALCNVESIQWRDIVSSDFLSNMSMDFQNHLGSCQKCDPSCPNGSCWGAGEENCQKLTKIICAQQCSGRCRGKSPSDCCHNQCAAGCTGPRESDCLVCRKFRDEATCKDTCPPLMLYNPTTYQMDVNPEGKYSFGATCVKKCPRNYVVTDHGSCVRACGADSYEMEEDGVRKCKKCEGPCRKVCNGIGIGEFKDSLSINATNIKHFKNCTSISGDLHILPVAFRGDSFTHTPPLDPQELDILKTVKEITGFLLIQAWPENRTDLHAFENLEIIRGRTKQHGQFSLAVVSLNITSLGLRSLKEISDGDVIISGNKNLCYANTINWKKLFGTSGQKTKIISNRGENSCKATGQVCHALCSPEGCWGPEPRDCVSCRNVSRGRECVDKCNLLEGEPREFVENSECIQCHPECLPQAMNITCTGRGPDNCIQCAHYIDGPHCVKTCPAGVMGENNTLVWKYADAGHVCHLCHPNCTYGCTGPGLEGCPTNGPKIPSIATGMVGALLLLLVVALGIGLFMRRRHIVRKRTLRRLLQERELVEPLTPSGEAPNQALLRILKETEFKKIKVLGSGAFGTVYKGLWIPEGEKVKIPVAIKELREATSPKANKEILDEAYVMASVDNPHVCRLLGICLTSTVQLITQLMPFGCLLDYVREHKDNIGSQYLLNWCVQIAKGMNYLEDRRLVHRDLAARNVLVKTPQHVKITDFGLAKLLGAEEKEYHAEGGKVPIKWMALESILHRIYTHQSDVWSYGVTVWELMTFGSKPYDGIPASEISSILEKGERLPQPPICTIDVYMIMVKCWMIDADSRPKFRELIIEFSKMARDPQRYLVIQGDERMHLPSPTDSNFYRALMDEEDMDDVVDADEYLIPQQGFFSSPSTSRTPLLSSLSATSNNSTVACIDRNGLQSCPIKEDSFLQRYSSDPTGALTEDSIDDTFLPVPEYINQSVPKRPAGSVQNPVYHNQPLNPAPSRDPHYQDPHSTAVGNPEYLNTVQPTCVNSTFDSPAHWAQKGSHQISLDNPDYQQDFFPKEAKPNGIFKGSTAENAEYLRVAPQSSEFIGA

CN1CCN(c2ccc(Nc3ncc4nc(Nc5ccc(Br)cc5)n(C5CCCC5)c4n3)cc2)CC1 [SKLB-178]
33P radiolabeled kinase assay (Millipore KinaseProfiler) (KDR (VEGFR2)): completely inhibited at 10 μM or 1 μM
33P radiolabeled kinase assay (Millipore KinaseProfiler) (EGFR): completely inhibited at 10 μM or 1 μM
inhibition at 1 µM (ErbB4): 100%
33P radiolabeled kinase assay (Millipore KinaseProfiler) (EGFR L858R): completely inhibited at 10 μM or 1 μM
33P radiolabeled kinase assay (Millipore KinaseProfiler) (Src): completely inhibited at 10 μM or 1 μM
inhibition at 1 µM (PDGFRα): 58%
inhibition at 10 µM (MET): 88%
33P radiolabeled kinase assay (Millipore KinaseProfiler) (EGFR L858R/T790M): completely inhibited at 10 μM or 1 μM
